Source: patent US9247759B2, “Identification of human T2R receptors that respond to bitter compounds that elicit the bitter taste in compositions, and the use thereof in assays to identify compounds that inhibit (block) bitter taste in compositions and use thereof” (SENOMYX, INC., priority 2007, dated 2016)
Like-named read-outs stand apart in the source and are kept apart here.

Key:
hT2R14 = hT2R14 (Homo sapiens (Human), UniProt Q9NYV8); assay: hT2R14 antagonist high-throughput FLIPR assay, stable cell line with G16g44, agonist aristolochic acid; format: cell-based
Chain of hT2R14 (Q9NYV8 whole entry): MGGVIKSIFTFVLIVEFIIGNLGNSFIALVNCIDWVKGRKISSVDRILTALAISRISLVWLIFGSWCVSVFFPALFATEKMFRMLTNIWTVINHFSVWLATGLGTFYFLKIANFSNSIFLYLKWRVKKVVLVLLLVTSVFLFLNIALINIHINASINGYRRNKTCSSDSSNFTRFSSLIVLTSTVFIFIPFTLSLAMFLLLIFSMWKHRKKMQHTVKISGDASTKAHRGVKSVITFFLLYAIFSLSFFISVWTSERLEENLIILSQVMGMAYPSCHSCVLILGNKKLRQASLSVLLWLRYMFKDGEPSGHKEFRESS
Method: The inventors also used the automated fluorimetric […] system FLIPR using a slightly different protocol. A HEK293 cell line stably expressing G16gust44 was transfected with a hT2R expression plasmid, 24 hours later, the cells are loaded and analyzed on FLIPR.
After a ligand is identified for a particular hT2R, a HEK293 cell line stably expressing both the hT2R and G16gust44 are generated, facilitating future screening assays to identify other ligands that activate the particular hT2R or which modulate (block or enhance) the activation of this hT2R by another bitter ligand such as a bitter compound contained in coffee. This avoids the need for transient transfection.
To identify antagonists, cell lines stably expressing hT2R8 and hT2R14, respectively, together with the promiscuous chimeric G16g44 protein were generated as described in previous patent applications. A high-throughput assay was established using the stable cell lines and FLIPR (Fluorescent Imaging Plate Reader). An agonist of hT2R8 or hT2R14 was used to activate the receptors up to 70-80% of their respective maximal activity. For hT2R8, the agonist used was andrographolide (200 […]); for hT2R14, it was aristolochic acid (3 μM). To identify antagonists, compounds with diverse chemical structures were added together with the agonist.

hT2R8 = hT2R8 (Homo sapiens (Human), UniProt Q9NYW2); assay: hT2R8 antagonist high-throughput FLIPR assay, stable cell line with G16g44, agonist andrographolide; format: cell-based
Chain of hT2R8 (Q9NYW2 whole entry): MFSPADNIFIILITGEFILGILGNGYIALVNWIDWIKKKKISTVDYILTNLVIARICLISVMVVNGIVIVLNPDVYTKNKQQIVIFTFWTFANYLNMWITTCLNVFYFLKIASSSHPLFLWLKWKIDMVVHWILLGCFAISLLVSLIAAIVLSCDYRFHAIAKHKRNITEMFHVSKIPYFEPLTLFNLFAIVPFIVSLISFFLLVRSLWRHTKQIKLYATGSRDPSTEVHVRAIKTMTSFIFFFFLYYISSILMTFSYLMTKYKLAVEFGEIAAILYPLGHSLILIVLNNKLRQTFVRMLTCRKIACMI
Method in brief: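 Antagonist screen: compounds co-applied with agonist andrographolide at 200 μM, a dose giving 70–80% of maximal hT2R8 activation. Fluorescence measured by FLIPR in a stable HEK293 line expressing both hT2R8 and the promiscuous G16g44 protein.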

[1] = read-out: IC50 on hT2R14 bitter receptor
[2] = table after Example 12-37, read-out: hT2R8 IC50
[3] = read-out: IC50 on hT2R8 bitter receptor

IC50 (hT2R14; Table C, read-out: hT2R14 IC50)	IC50 (hT2R8; [2])	Compound	also measured
–	1220 nM	Cc1ccc(CN2C(=O)N(c3cnn(Cc4c(C)noc4C)c3)C(=O)C2(C)C)cc1C [Example 12-83, 1-(3,4-dimethylbenzyl)-3-(1-((3,5-dimethylisoxazol-4-yl)methyl)-1H-pyrazol-4-yl)-5,5-dimethylimidazolidine-2,4-dione]	–
–	1540 nM	Cc1noc(C)c1Cn1cc(N2C(=O)N(Cc3cccc(C(F)(F)F)c3)C(C)(C)C2=O)cn1 [Example 12-84, 3-(1-((3,5-dimethylisoxazol-4-yl)methyl)-1H-pyrazol-4-yl)-5,5-dimethyl-1-(3-(trifluoromethyl)benzyl)imidazolidine-2,4-dione]	–
–	1580 nM	Cc1cccc(C)c1CN1C(=O)N(c2cnn(Cc3c(C)noc3C)c2)C(=O)C1(C)C [Example 12-85, 1-(2,6-dimethylbenzyl)-3-(1-((3,5-dimethylisoxazol-4-yl)methyl)-1H-pyrazol-4-yl)-5,5-dimethylimidazolidine-2,4-dione]	–
–	1890 nM	Cc1ccc(CN2C(=O)N(c3cnn(Cc4c(C)noc4C)c3)C(=O)C2(C)C)c(C)c1 [Example 12-86, 1-(2,4-dimethylbenzyl)-3-(1-((3,5-dimethylisoxazol-4-yl)methyl)-1H-pyrazol-4-yl)-5,5-dimethylimidazolidine-2,4-dione]	–
–	2080 nM	Cc1noc(C)c1Cn1cc(N2C(=O)N(Cc3cccc(OCCN(C)C)c3)C(C)(C)C2=O)cn1 [Example 12-87, 1-(3-(2-(dimethylamino)ethoxy)benzyl)-3-(1-((3,5-dimethylisoxazol-4-yl)methyl)-1H-pyrazol-4-yl)-5,5-dimethylimidazolidine-2,4-dione]	–
–	360 nM	Cc1noc(C)c1Cn1cc(N2C(=O)N(Cc3ccc(CO)cc3)C(C)(C)C2=O)cn1 [Example 12-88, 3-(1-((3,5-dimethylisoxazol-4-yl)methyl)-1H-pyrazol-4-yl)-1-(4-(hydroxymethyl)benzyl)-5,5-dimethylimidazolidine-2,4-dione]	–
–	2310 nM	Cc1noc(C)c1Cn1cc(N2C(=O)N(Cc3ccc(C(=O)O)cc3)C(C)(C)C2=O)cn1 [Example 12-89, 4-((3-(1-((3,5-dimethylisoxazol-4-yl)methyl)-1H-pyrazol-4-yl)-5,5-dimethyl-2,4-dioxoimidazolidin-1-yl)methyl)benzoic acid]	–
–	2850 nM	Cc1noc(C)c1Cn1cc(N2C(=O)N(Cc3cccc(OCC(=O)O)c3)C(C)(C)C2=O)cn1 [Example 12-90, 2-(3-((3-(1-((3,5-dimethylisoxazol-4-yl)methyl)-1H-pyrazol-4-yl)-5,5-dimethyl-2,4-dioxoimidazolidin-1-yl)methyl)phenoxy)acetic acid]	–
–	4230 nM	Cc1noc(C)c1Cn1cc(N2C(=O)N(Cc3ccccc3C(=O)O)C(C)(C)C2=O)cn1 [Example 12-91, 2-((3-(1-((3,5-dimethylisoxazol-4-yl)methyl)-1H-pyrazol-4-yl)-5,5-dimethyl-2,4-dioxoimidazolidin-1-yl)methyl)benzoic acid]	–
–	280 nM	COCc1ccc(CN2C(=O)N(c3cnn(Cc4c(C)noc4C)c3)C(=O)C2(C)C)cc1 [Example 12-92, 3-(1-((3,5-dimethylisoxazol-4-yl)methyl)-1H-pyrazol-4-yl)-1-(4-(methoxymethyl)benzyl)-5,5-dimethylimidazolidine-2,4-dione]	–

Continued, molecule first:

Compound	IC50 (hT2R14; Table C, read-out: hT2R14 IC50)	IC50 (hT2R8; [2])	also measured
CC(C)CN(CC(C)C)S(=O)(=O)c1ccc(C(=O)O)cc1 [Compound 5-9, 4-(N,N-diisobutylsulfamoyl)benzoic acid]	–	–	IC50 (hT2R14; Table B, read-out: hT2R14 IC50): 15000 nM
COc1ccc(CN(Cc2ccccc2)S(=O)(=O)c2ccc(C(=O)O)cc2)cc1OC [Example 5-39, 4-(N-benzyl-N-(3,4-dimethoxybenzyl)sulfamoyl)benzoic acid]	–	–	IC50 (hT2R14; [1]): 678 nM
O=C(O)c1ccc(CN(Cc2cccc(F)c2)S(=O)(=O)c2ccc(O)cc2)cc1 [Example 5-45, 4-((N-(3-fluorobenzyl)-4-hydroxyphenylsulfonamido)methyl)benzoic acid]	–	–	IC50 (hT2R14; [1]): 459 nM
O=C(O)C1CCC(CN(Cc2ccc(F)cc2)S(=O)(=O)c2cccnc2)CC1 (centres unmarked) [Example 5-52, 4-((N-(4-fluorobenzyl)pyridine-3-sulfonamido)methyl)cyclohexanecarboxylic acid]	8430 nM	–	–
COc1ccc(CN(CC2CCC(C(=O)O)CC2)C(=S)Nc2ccc(C)c(Cl)c2)cc1 (centres unmarked) [Example 5-111, 4-((3-(3-chloro-4-methylphenyl)-1-(4-methoxybenzyl)thioureido)methyl) cyclohexanecarboxylic acid]	6140 nM	–	–
COc1ccc(CN(CC2CCC(C(=O)O)CC2)C(=S)Nc2ccccc2OC)cc1 (centres unmarked) [Example 5-112, 4-((1-(4-methoxybenzyl)-3-(2-methoxyphenyl)thioureido)methyl) cyclohexanecarboxylic acid]	8850 nM	–	–
CCc1ccc(CN(CC2CCC(C(=O)O)CC2)C(=S)Nc2ccccc2C)cc1 (centres unmarked) [Example 5-113, 4-((1-(4-ethylbenzyl)-3-o-tolylthioureido)methyl) cyclohexanecarboxylic acid]	5020 nM	–	–
Cc1cc(NC(=S)N(Cc2ccccc2C)CC2CCC(C(=O)O)CC2)ccc1Cl (centres unmarked) [Example 5-114, 4-((3-(4-chloro-3-methylphenyl)-1-(2-methylbenzyl)thioureido)methyl) cyclohexanecarboxylic acid]	4870 nM	–	–
CCOC(=O)C1CCC(CN(Cc2ccccc2)S(=O)(=O)c2ccc(NC(C)=O)cc2)CC1 (centres unmarked) [Example 5-115, ethyl 4-((4-acetamido-N-benzylphenylsulfonamido)methyl) cyclohexanecarboxylate]	334 nM	–	–
CCOC(=O)C1CCC(CN(Cc2cccc(Br)c2)S(=O)(=O)c2ccc3c(c2)OCCO3)CC1 (centres unmarked) [Example 5-116, ethyl 4-((N-(3-bromobenzyl)-2,3-dihydrobenzo[b][1,4]dioxine-6-sulfonamido)methyl) cyclohexanecarboxylate]	2570 nM	–	–
CCOC(=O)C1CCC(CN(Cc2ccccc2Cl)S(=O)(=O)c2ccc(C)cc2)CC1 (centres unmarked) [Example 5-117, ethyl 4-((N-(2-chlorobenzyl)-4-methylphenylsulfonamido)methyl) cyclohexanecarboxylate]	2820 nM	–	–
CCOC(=O)C1CCC(CN(Cc2ccccc2)S(=O)(=O)c2ccc(Br)cc2)CC1 (centres unmarked) [Example 5-118, ethyl 4-((N-benzyl-4-bromophenylsulfonamido)methyl) cyclohexanecarboxylate]	2340 nM	–	–
CCOC(=O)C1CCC(CN(Cc2ccccc2)S(=O)(=O)c2ccc(Cl)cc2)CC1 (centres unmarked) [Example 5-119, ethyl 4-((N-benzyl-4-chlorophenylsulfonamido)methyl) cyclohexanecarboxylate]	672 nM	–	–
Cc1noc(C)c1Cn1cc(N2C(=O)[C@@H]3Cc4ccc(O)cc4CN3C2=O)cn1 [Example 13-1, (S)-2-(1-((3,5-dimethylisoxazol-4-yl)methyl)-1H-pyrazol-4-yl)-7-hydroxy-10,10a-dihydroimidazo[1,5-b]isoquinoline-1,3(2H,5H)-dione]	–	–	IC50 (hT2R8; [3]): 20 nM
Cc1noc(C)c1Cn1cc(N2C(=O)[C@H]3Cc4ccc(O)cc4CN3C2=O)cn1 [Example 13-2, (R)-2-(1-((3,5-dimethylisoxazol-4-yl)methyl)-1H-pyrazol-4-yl)-7-hydroxy-10,10a-dihydroimidazo[1,5-b]isoquinoline-1,3(2H,5H)-dione]	–	–	IC50 (hT2R8; [3]): 30 nM
Cc1noc(C)c1Cn1cc(N2C(=O)C3Cc4cc(O)ccc4CN3C2=O)cn1 (centres unmarked) [Example 13-3, 2-(1-((3,5-dimethylisoxazol-4-yl)methyl)-1H-pyrazol-4-yl)-8-hydroxy-10,10a-dihydroimidazo[1,5-b]isoquinoline-1,3(2H,5H)-dione]	–	–	IC50 (hT2R8; [3]): 30 nM
